The experiment concerns the target bNOS (UniProt P29475). As to the kind of experiment: bNOS inhibition (method of Bredt and Snyder). Format: biochemical. The source says:
The NOS-inhibitory action of the compounds of Formula (I) and their physiologically compatible salts can be determined according to the methods by Bredt and Snyder in Proc. Natl. Acad. Sci. USA (1989) 86, 9030–9033.

Counter-ions that a name gives are not always drawn.

As a reminder, the IC50 is the point on the concentration scale where inhibition reaches its midpoint. For the compound `NC1=Nc2cc(CCNCc3cccc(Cl)c3)c(Cl)cc2C2CCCC12` (stereo not shown) [Example 8, 4-Amino-8-chloro-7-(3-chlorobenzylamino)ethyl-2,3,3a,9b-tetrahydro-1H-cyclopenta[c]quinoline Dihydrochloride], the IC50 came out at 190 nM.

(Values after patent US7067667B2, “Aminoalkyl-3, 4-dihydroquinoline derivatives as no-synthase inhibitors” (Schering Aktiengesellschaft, priority 1998, dated 2006).)
